Source: EPA's ToxRefDB 2

Tests used:
dog [1] = details: Chronic toxicity; beagle; Oral; Feed; dose end: 52 week; group: systemic; systemic / clinical chemistry / creatinine / creatinine + systemic / clinical chemistry / urea nitrogen / urea + systemic / pathology …
rat [2] = details: Subchronic oral toxicity in rodents, sprague dawley, Gavage/Intubation, dose end: 28 day, group: systemic
rat [3] = details: Subchronic oral toxicity in rodents, sprague dawley, Feed, dose end: 28 day, group: systemic
rabbit [4] = details: Prenatal developmental toxicity study, other, Oral, Gavage/Intubation, dose end: 19 GD
rat [5] = details: Subchronic oral toxicity in rodents, sprague dawley, Feed, dose end: 3 month, group: systemic
rat [6] = details: Subchronic dermal toxicity, sprague dawley, Topical, dose end: 28 day, group: systemic, systemic / clinical chemistry / alkaline phosphatase (alp/alk) / alkaline phosphatase (alp/alk) + systemic / clinical chemistry / glucose / …
mouse [7] = details: Subchronic oral toxicity in rodents, other, Feed, dose end: 13 week, group: systemic
rat [8] = details: Combined chronic toxicity/carcinogenicity; sprague dawley; Oral; Feed; dose end: 24 month; group: systemic; systemic / pathology microscopic / kidney / infiltration cellular + systemic / pathology microscopic / kidney / nephropathy
dog [9] = details: Subchronic oral toxicity in nonrodent, beagle, Feed, dose end: 13 week, group: systemic, systemic / clinical chemistry / alanine aminotransferase (alt/sgpt) / alanine aminotransferase (alt/sgpt) + systemic / clinical chemistry / …
mouse [10] = details: Other (NonGuideline or Guideline Not Listed), Oral, Feed, dose end: 59 day, group: cannot be grouped
rabbit [11] = details: Prenatal developmental toxicity study, himalayan, Oral, Gavage/Intubation, dose end: 19 GD
mouse [12] = details: Carcinogenicity, other, Oral, Feed, dose end: 78 week, group: systemic
rat [13] = details: Prenatal developmental toxicity study, other, Oral, Gavage/Intubation, dose end: 15 GD
dog [14] = details: Subchronic oral toxicity in nonrodent, beagle, Feed, dose end: 28 day, group: systemic, systemic / in life observation / food consumption / food consumption + systemic / in life observation / body weight / body weight + systemic…
rat [15] = details: Prenatal developmental toxicity study, other, Oral, Gavage/Intubation, dose end: 15 GD; remark: listed apart in the source
[16] = systemic / pathology microscopic / kidney / dilatation + systemic / pathology microscopic / adrenal gland / fatty change + systemic / in …
[17] = systemic / pathology microscopic / kidney / [other] + systemic / pathology microscopic / kidney / dilatation + systemic / pathology …
[18] = systemic / pathology microscopic / kidney / proliferation
[19] = group: developmental, systemic / in life observation / body weight / fetal weight
[20] = group: maternal, systemic / in life observation / body weight / body weight gain + systemic / in life observation / food consumption / food consumption
[21] = group: maternal, systemic / in life observation / body weight / body weight gain + systemic / in life observation / food consumption / food consumption + …
[22] = systemic / pathology microscopic / kidney / hyalinization + systemic / pathology microscopic / kidney / lesion(s) (nos)
[23] = systemic / pathology microscopic / kidney / hyalinization + systemic / pathology microscopic / kidney / lesion(s) (nos) + systemic / …
[24] = systemic / pathology microscopic / liver / hypertrophy
[25] = systemic / pathology microscopic / liver / hypertrophy + systemic / hematology / anemia / anemia - nos + systemic / hematology / erythrocyte…
[26] = systemic / pathology microscopic / liver / proliferation + systemic / organ weight / liver / absolute + systemic / organ weight / liver / …
[27] = group: developmental, developmental / developmental malformation / bone / fused + developmental / developmental malformation / bone / misshapen + developmental / …
[28] = group: maternal, systemic / in life observation / food consumption / food consumption + reproductive / reproductive performance / postimplantation loss / …
[29] = systemic / pathology microscopic / liver / hypertrophy + systemic / pathology microscopic / liver / infiltration cellular + systemic / …
[30] = group: maternal, systemic / in life observation / body weight / body weight gain + systemic / in life observation / body weight / body weight + systemic / in…
[31] = group: developmental, developmental / developmental malformation / bone / incomplete ossification + developmental / developmental malformation / bone / irregular …
[32] = group: maternal, systemic / in life observation / body weight / body weight + systemic / in life observation / body weight / body weight gain + systemic / in…

With CN1COCN(Cc2cnc(Cl)s2)/C1=N/[N+](=O)[O-] [Thiamethoxam] the LEL (dog [1]) was 21 mg/kg/day, the LOAEL (dog [1]) was 21 mg/kg/day and the NEL (dog [1]) was 4.05 mg/kg/day. The NOAEL (dog [1]) was 4.05 mg/kg/day, the LOAEL (rat [2]; systemic / pathology microscopic / kidney / dilatation + systemic / pathology microscopic / adrenal gland / fatty change) was 300 mg/kg/day and the NEL (rat [2]; [16]) was 100 mg/kg/day. It also gave an NOAEL (rat [2]; [16]) of 100 mg/kg/day, an LEL (rat [2]; systemic / pathology microscopic / kidney / dilatation + systemic / pathology microscopic / adrenal gland / fatty change + systemic / …) of 300 mg/kg/day and an LOAEL (rat [3]; [17]) of 81.7 mg/kg/day. It also gave an NOAEL (rat [3]; [17]) of 8.04 mg/kg/day, an LEL (rat [3]; [18]) of 8.04 mg/kg/day and an NEL (rat [3]; [18]) of under 8.04 mg/kg/day. The LEL (rabbit [4]; [19]) was 150 mg/kg/day, the LOAEL (rabbit [4]; [19]) was 150 mg/kg/day and the NEL (rabbit [4]; [19]) was 50 mg/kg/day. The NOAEL (rabbit [4]; [19]) was 50 mg/kg/day, the LEL (rabbit [4]; [20]) was 50 mg/kg/day and the LOAEL (rabbit [4]; [20]) was 50 mg/kg/day. It also gave an NEL (rabbit [4]; [21]) of 10 mg/kg/day, an NOAEL (rabbit [4]; [21]) of 10 mg/kg/day and an LEL (rat [5]; [22]) of 17.6 mg/kg/day. The LOAEL (rat [5]; [22]) was 17.6 mg/kg/day, the NEL (rat [5]; [23]) was 1.74 mg/kg/day and the NOAEL (rat [5]; [23]) was 1.74 mg/kg/day. For the same molecule, the LEL (rat [6]) was 250 mg/kg/day, the LOAEL (rat [6]) was 250 mg/kg/day and the NEL (rat [6]) was 60 mg/kg/day. It also gave an NOAEL (rat [6]) of 60 mg/kg/day, an LEL (mouse [7]; [24]) of 14.3 mg/kg/day and an LOAEL (mouse [7]; [24]) of 14.3 mg/kg/day. The NEL (mouse [7]; [25]) was 1.41 mg/kg/day, the NOAEL (mouse [7]; [25]) was 1.41 mg/kg/day and the LEL (rat [8]) was 63 mg/kg/day. For the same molecule, the LOAEL (rat [8]) was 63 mg/kg/day, the NEL (rat [8]) was 21 mg/kg/day and the NOAEL (rat [8]) was 21 mg/kg/day. The LEL (dog [9]) was 32 mg/kg/day, the LOAEL (dog [9]) was 32 mg/kg/day and the NEL (dog [9]) was 8.23 mg/kg/day. It also gave an NOAEL (dog [9]) of 8.23 mg/kg/day, an LEL (mouse [10]; systemic / pathology microscopic / liver / proliferation) of 72 mg/kg/day and an LOAEL (mouse [10]; [26]) of over 386 mg/kg/day. The NEL (mouse [10]; [26]) was 16 mg/kg/day, the NOAEL (mouse [10]; [26]) was at least 386 mg/kg/day and the LEL (rabbit [11]; [27]) was 150 mg/kg/day. It also gave an LOAEL (rabbit [11]; [27]) of 150 mg/kg/day, an NEL (rabbit [11]; [27]) of 50 mg/kg/day and an NOAEL (rabbit [11]; [27]) of 50 mg/kg/day. The LEL (rabbit [11]; group: maternal, systemic / in life observation / food consumption / food consumption) was 50 mg/kg/day, the LOAEL (rabbit [11]; [28]) was 150 mg/kg/day and the NEL (rabbit [11]; [28]) was 15 mg/kg/day. The NOAEL (rabbit [11]; [28]) was 50 mg/kg/day, the NEL (mouse [12]; systemic / organ weight / liver / relative to body weight + systemic / pathology microscopic / liver / hypertrophy + systemic / pathology …) was 479 mg/kg/day and the LOAEL (mouse [12]; [29]) was 63.8 mg/kg/day. The NOAEL (mouse [12]; [29]) was 2.63 mg/kg/day, the LEL (rat [13]; [19]) was 1000 mg/kg/day and the LOAEL (rat [13]; [19]) was 1000 mg/kg/day. The NEL (rat [13]; [19]) was 500 mg/kg/day, the NOAEL (rat [13]; [19]) was 500 mg/kg/day and the LOAEL (rat [13]; group: maternal, systemic / in life observation / body weight / body weight gain) was 500 mg/kg/day. It also gave an LEL (rat [13]; [30]) of 500 mg/kg/day, an NEL (rat [13]; [30]) of 100 mg/kg/day and an NOAEL (rat [13]; [30]) of 100 mg/kg/day. The LEL (dog [14]) was 43 mg/kg/day, the LOAEL (dog [14]) was 43 mg/kg/day and the NEL (dog [14]) was 32.6 mg/kg/day. It also gave an NOAEL (dog [14]) of 32.6 mg/kg/day, an LOAEL (rat [15]; [31]) of 750 mg/kg/day and an NEL (rat [15]; [31]) of 30 mg/kg/day. The NOAEL (rat [15]; [31]) was 200 mg/kg/day, the LEL (rat [15]; group: developmental, developmental / developmental malformation / bone / incomplete ossification + developmental / developmental malformation / bone / short …) was 200 mg/kg/day and the LEL (rat [15]; [32]) was 200 mg/kg/day. The LOAEL (rat [15]; [32]) was 200 mg/kg/day, the NEL (rat [15]; [32]) was 30 mg/kg/day and the NOAEL (rat [15]; [32]) was 30 mg/kg/day.
